13 compounds from ChEMBL document CHEMBL5291721, “A preclinical secondary pharmacology resource illuminates target-adverse drug reaction associations of marketed drugs” (Nat Commun, 2023) can be followed below.

For assay [1], the target named is T1, 5-hydroxytryptamine receptor 1A (Homo sapiens, UniProt P08908).
T1 sequence (P08908 whole entry): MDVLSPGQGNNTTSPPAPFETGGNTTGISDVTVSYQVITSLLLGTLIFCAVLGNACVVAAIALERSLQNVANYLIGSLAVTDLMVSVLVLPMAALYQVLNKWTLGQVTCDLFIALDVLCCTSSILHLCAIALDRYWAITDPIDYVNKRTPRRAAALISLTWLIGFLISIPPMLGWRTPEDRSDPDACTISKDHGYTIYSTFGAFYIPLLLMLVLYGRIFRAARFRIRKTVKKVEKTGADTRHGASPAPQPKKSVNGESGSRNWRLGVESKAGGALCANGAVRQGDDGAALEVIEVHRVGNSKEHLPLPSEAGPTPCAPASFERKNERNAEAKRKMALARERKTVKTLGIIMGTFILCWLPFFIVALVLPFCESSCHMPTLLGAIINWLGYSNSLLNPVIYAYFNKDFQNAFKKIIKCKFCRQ
Format: functional, cell-based.

Assay [2] addresses Muscarinic acetylcholine receptor M3 (Homo sapiens, UniProt P20309).
The next assay deals with T2, Thromboxane A2 receptor (Homo sapiens, UniProt P21731).
T2 sequence (P21731 whole entry): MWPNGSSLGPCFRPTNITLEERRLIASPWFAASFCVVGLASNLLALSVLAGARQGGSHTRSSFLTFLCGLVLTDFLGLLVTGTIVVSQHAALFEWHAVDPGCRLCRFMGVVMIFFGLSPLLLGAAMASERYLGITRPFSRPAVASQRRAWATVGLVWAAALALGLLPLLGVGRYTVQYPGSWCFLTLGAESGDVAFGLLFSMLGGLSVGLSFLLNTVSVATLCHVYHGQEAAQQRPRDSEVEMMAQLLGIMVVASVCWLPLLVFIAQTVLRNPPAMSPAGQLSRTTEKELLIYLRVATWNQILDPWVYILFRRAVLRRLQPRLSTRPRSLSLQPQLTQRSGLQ

The target in a further assay is Melanocortin receptor 4 (Homo sapiens, UniProt P32245).
For assay [3], the target named is Beta-1 adrenergic receptor (Homo sapiens, UniProt P08588). Format: functional.
The target in the next assay is T3, Estrogen receptor (Homo sapiens, UniProt P03372).
T3 sequence (P03372 whole entry): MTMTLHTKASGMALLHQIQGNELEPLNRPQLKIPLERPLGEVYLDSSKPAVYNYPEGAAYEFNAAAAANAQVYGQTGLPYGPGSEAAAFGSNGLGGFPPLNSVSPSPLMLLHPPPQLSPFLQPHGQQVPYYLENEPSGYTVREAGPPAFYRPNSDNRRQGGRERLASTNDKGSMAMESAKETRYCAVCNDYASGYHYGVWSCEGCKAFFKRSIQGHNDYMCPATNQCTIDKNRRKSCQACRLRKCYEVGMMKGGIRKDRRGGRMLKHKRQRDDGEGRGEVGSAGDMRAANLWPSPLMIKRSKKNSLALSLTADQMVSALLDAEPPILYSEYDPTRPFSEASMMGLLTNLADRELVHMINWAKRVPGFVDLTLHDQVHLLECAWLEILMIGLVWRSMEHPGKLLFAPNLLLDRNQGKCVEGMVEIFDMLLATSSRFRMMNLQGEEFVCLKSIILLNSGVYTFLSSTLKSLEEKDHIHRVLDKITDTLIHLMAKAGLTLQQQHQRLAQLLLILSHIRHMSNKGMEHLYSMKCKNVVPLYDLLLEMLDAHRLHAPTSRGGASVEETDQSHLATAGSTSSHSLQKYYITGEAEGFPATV

Assay [4] concerns the target Kappa-type opioid receptor (Homo sapiens, UniProt P41145).
Assay [5] addresses T4, Muscarinic acetylcholine receptor M2 (Homo sapiens, UniProt P08172).
T4 sequence (P08172 whole entry): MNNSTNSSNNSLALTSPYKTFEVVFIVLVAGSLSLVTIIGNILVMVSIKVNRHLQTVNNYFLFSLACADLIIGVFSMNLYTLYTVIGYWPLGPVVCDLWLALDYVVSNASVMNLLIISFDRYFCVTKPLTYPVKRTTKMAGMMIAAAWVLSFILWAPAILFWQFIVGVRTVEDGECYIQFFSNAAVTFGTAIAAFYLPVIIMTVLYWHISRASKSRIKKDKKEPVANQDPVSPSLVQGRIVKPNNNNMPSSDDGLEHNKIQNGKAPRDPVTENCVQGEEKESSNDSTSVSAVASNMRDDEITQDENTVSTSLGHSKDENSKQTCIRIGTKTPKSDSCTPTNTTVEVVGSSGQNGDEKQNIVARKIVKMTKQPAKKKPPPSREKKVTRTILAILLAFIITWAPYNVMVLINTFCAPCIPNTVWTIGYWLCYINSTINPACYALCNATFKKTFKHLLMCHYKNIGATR
The assay is classed as functional, cell-based.

For assay [6], the target named is Beta-2 adrenergic receptor (Homo sapiens, UniProt P07550).
In assay [7] the target is T5, Alpha-2B adrenergic receptor (Homo sapiens, UniProt P18089).
T5 sequence (P18089 whole entry): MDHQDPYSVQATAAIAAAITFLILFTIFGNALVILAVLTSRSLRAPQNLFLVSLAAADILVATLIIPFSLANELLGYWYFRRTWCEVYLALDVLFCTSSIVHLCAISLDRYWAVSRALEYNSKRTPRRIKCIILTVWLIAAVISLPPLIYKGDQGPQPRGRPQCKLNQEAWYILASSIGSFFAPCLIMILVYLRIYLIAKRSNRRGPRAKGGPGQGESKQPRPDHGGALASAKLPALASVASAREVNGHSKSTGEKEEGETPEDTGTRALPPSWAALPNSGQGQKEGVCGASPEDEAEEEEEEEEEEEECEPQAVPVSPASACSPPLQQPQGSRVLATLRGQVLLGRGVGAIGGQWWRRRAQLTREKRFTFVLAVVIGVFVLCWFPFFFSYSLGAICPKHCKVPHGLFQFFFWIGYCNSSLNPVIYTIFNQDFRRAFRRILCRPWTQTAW

In a further assay the target is Mu-type opioid receptor (Homo sapiens, UniProt P35372). Put plainly: biochemical. The assay is classed as functional.
Also: assay procedure not described here.

Kappa-type opioid receptor, sequence (P41145 whole entry): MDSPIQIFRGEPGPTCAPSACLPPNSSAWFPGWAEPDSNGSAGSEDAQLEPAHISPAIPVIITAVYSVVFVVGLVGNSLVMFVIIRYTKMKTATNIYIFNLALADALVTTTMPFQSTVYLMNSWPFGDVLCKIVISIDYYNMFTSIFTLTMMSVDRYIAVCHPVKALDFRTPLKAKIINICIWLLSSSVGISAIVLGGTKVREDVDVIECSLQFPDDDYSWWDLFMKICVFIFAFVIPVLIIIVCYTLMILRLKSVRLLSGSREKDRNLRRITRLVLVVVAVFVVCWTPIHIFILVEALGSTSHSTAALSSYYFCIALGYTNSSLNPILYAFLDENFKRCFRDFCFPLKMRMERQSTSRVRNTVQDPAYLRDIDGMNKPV
Muscarinic acetylcholine receptor M3, sequence (P20309 whole entry): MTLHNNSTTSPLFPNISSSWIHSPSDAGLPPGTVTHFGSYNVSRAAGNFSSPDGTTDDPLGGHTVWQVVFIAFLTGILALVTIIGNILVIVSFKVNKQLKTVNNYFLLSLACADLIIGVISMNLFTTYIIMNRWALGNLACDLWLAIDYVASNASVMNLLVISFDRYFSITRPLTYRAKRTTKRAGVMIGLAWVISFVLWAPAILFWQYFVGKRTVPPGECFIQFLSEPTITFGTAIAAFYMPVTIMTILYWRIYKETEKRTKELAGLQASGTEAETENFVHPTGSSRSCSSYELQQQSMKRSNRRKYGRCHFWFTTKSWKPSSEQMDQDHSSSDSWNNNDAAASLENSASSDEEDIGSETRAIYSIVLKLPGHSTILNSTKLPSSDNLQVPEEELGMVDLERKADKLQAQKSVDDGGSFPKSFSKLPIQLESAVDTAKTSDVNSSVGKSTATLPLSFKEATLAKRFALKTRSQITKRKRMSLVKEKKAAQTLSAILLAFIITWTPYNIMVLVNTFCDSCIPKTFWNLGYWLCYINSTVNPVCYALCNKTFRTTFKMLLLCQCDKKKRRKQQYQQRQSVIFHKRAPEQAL
Melanocortin receptor 4, sequence (P32245 whole entry): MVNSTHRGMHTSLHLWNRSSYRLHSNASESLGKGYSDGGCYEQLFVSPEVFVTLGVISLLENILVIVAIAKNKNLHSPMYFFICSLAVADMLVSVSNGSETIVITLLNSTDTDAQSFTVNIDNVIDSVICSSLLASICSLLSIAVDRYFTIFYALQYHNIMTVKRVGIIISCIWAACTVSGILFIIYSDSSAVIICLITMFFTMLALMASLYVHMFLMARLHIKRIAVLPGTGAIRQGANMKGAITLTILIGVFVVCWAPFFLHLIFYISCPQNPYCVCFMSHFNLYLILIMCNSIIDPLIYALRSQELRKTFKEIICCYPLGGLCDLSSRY
Beta-1 adrenergic receptor, sequence (P08588 whole entry): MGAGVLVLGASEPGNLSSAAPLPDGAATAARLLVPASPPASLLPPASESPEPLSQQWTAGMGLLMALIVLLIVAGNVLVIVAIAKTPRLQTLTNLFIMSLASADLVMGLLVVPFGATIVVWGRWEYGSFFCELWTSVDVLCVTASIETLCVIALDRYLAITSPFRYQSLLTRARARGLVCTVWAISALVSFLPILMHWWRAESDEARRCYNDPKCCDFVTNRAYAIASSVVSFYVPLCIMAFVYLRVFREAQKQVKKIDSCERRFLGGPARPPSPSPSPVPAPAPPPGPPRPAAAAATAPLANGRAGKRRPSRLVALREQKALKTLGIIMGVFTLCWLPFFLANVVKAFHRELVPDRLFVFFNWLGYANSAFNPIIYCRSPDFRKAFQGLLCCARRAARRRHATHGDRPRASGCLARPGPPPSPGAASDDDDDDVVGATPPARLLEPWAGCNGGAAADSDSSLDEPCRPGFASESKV
Beta-2 adrenergic receptor, sequence (P07550 whole entry): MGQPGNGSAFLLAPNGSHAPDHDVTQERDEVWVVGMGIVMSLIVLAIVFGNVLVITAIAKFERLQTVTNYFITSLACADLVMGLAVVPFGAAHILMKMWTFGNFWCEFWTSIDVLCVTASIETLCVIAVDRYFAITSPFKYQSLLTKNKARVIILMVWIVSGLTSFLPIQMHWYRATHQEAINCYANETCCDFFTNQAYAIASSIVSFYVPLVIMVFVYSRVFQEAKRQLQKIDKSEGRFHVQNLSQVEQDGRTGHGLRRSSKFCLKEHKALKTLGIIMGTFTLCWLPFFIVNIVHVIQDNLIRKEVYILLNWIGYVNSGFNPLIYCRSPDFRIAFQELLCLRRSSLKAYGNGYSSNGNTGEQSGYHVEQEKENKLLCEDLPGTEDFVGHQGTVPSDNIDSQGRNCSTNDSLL
Mu-type opioid receptor, sequence (P35372 whole entry): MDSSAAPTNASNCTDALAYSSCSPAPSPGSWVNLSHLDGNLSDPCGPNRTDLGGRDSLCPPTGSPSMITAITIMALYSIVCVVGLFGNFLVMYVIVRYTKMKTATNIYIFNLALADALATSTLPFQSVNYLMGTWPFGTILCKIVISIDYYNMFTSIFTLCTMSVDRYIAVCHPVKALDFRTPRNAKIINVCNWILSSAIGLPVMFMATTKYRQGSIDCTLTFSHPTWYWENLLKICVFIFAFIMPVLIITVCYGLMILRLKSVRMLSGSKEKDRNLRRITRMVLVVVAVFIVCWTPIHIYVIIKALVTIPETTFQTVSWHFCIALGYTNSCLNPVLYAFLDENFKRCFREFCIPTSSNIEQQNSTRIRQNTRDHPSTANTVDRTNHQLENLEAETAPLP

A word on the AC50: it is the midpoint of the concentration-response curve, whichever way the signal moves. A higher AC50 goes with activity only at high concentration. `CC(N)Cc1ccccc1` (centres undefined) [AMPHETAMINE]: the AC50 (in assay [1]; in assay [2]; at Thromboxane A2 receptor; on Melanocortin receptor 4; in assay [3]; on Estrogen receptor) was above 30 µM in each case. In addition, the AC50 in assay [4] is above 10 µM; in [5] it was above 30 µM.

In the case of `COC(=O)N[C@H](C(=O)N[C@@H](Cc1ccccc1)[C@@H](O)CN(Cc1ccc(-c2ccccn2)cc1)NC(=O)[C@@H](NC(=O)OC)C(C)(C)C)C(C)(C)C` [ATAZANAVIR], the half-maximal activity concentration (AC50) is above 10 µM in [1]; above 30 µM in assay [2]; above 10 µM in assay [6]; above 30 µM on Thromboxane A2 receptor; above 30 µM at Melanocortin receptor 4; above 10 µM in assay [3]. For the same compound, the AC50 in assay [7] is above 10 µM; on Estrogen receptor, above 30 µM; in [4], 1.06 µM; in [5] it was above 10 µM.

Turning to `CCC[C@@H]1C[C@@H](C(=O)N[C@@H]([C@H]2O[C@H](SC)[C@H](O)[C@@H](O)[C@H]2O)[C@H](C)Cl)N(C)C1` [CLINDAMYCIN], the AC50 was above 10 µM in [1]; above 10 µM in [6]; above 30 µM on Thromboxane A2 receptor; above 30 µM on Melanocortin receptor 4; above 10 µM in assay [3]; above 30 µM at Estrogen receptor. The concentration at half-maximal activity (AC50) in assay [4] and in assay [5] was above 10 µM each time.

`COC(=O)[C@@H]1CC2=CC(=O)CC[C@]2(C)[C@@]23O[C@@H]2C[C@@]2(C)[C@@H](CC[C@@]24CCC(=O)O4)[C@H]13` [EPLERENONE]: the concentration at half-maximal activity (AC50) is above 30 µM in assay [1]; above 30 µM in [2]; above 10 µM in assay [6]; above 30 µM on Thromboxane A2 receptor; above 30 µM at Melanocortin receptor 4; above 30 µM in assay [3]. In addition, the AC50 in assay [7] was above 30 µM; at Estrogen receptor it was above 30 µM; in [4] it was above 10 µM; in assay [5], above 30 µM.

In the case of `NC(N)=Nc1nc(CSCCC(N)=NS(N)(=O)=O)cs1` [FAMOTIDINE], the AC50 is above 10 µM in [1]; above 10 µM in assay [6]; above 30 µM on Thromboxane A2 receptor; above 30 µM at Melanocortin receptor 4; above 10 µM in [3]; above 30 µM on Estrogen receptor. Moreover, the concentration at half-maximal activity (AC50) in assay [4] and in assay [5] was above 10 µM throughout.

Regarding `C[C@@H]1O[C@@H]1P(=O)(O)O` [FOSFOMYCIN], the AC50 is above 10 µM in assay [1]; above 30 µM in [2]; above 10 µM in assay [6]; above 10 µM on Thromboxane A2 receptor; above 10 µM on Melanocortin receptor 4; above 10 µM in assay [3]. Also, the AC50 in assay [7], in [4] and in assay [5] was above 10 µM throughout.

As to `NS(=O)(=O)c1cc2c(cc1Cl)NCNS2(=O)=O` [HYDROCHLOROTHIAZIDE], the AC50 in assay [1] was above 10 µM; in assay [6], above 10 µM; on Thromboxane A2 receptor, above 30 µM; on Melanocortin receptor 4, above 30 µM; in assay [3], above 10 µM; on Estrogen receptor, above 30 µM. In addition, the concentration at half-maximal activity (AC50) in [4] and in assay [5] was above 10 µM in each case.

For the compound `C[C@H]1C[C@@H]2[C@H]([C@@H](O)C[C@@]3(C)[C@H]2CC[C@]3(O)C(=O)CO)[C@@]2(C)C=CC(=O)C=C12` [METHYLPREDNISOLONE], the AC50 was above 10 µM in assay [1]; above 10 µM in assay [6]; above 30 µM on Mu-type opioid receptor; above 10 µM at Thromboxane A2 receptor; above 10 µM on Melanocortin receptor 4; above 10 µM in assay [3]. Further, the AC50 in assay [4] and in assay [5] was above 10 µM each time.

For the compound `CCN(CC)CCNC(=O)c1cc(Cl)c(N)cc1OC` [METOCLOPRAMIDE], the AC50 was above 10 µM in assay [1]; above 10 µM in [6]; above 30 µM on Thromboxane A2 receptor; above 30 µM at Melanocortin receptor 4; above 10 µM in assay [3]; above 30 µM at Estrogen receptor. The compound also registered a concentration at half-maximal activity (AC50) in assay [4] above 10 µM.

For `CC(C)(C(=O)c1cccnc1)c1cccnc1` [METYRAPONE], the half-maximal activity concentration (AC50) (in assay [1]; in [6]; at Thromboxane A2 receptor; on Melanocortin receptor 4; in assay [3]; on Estrogen receptor) was above 10 µM each time. The AC50 in [4] and in [5] was above 10 µM each time.

Regarding `NC1=NC(=O)C(c2ccccc2)O1` (centres undefined) [PEMOLINE], the AC50 in assay [1] is above 10 µM; in assay [6], above 10 µM; on Mu-type opioid receptor, above 30 µM; at Thromboxane A2 receptor, above 30 µM; on Melanocortin receptor 4 it was above 30 µM; in [3], above 10 µM. Moreover, the concentration at half-maximal activity (AC50) in assay [4] and in assay [5] was above 10 µM each time.

`CC(C(=O)O)c1ccc(C(=O)c2cccs2)cc1` (centres undefined) [SUPROFEN]: the AC50 in assay [1] was above 10 µM; in assay [2] it was above 30 µM; in [6], above 10 µM; on Thromboxane A2 receptor it was above 10 µM; on Melanocortin receptor 4, above 10 µM; in [7], above 10 µM. Besides, the concentration at half-maximal activity (AC50) in [4] and in assay [5] was above 10 µM throughout.

Turning to `Cc1ccc(C(=O)c2cc(O)c(O)c([N+](=O)[O-])c2)cc1` [TOLCAPONE], the half-maximal activity concentration (AC50) in assay [1] is 5.6 µM; in assay [2], above 30 µM; in [6] it was above 10 µM; at Thromboxane A2 receptor, above 10 µM; on Melanocortin receptor 4, above 10 µM; in assay [3], above 10 µM. Also, the half-maximal activity concentration (AC50) in [7], in assay [4] and in assay [5] was above 10 µM in each case.
